Laboratory results taken from patent publication US20260217765A1, “NOVEL ANTIMICROBIAL PEPTIDE DESIGNED FROM DUCK-DERIVED ANTIMICROBIAL PEPTIDE ANDUSE THEREOF” (INDUSTRY-ACADEMIC COOPERATION FOUNDATION, CHOSUN UNIVERSITY, priority 2023, published 2026).
In brackets after ≈: the same amount, converted by molar mass. Peptide text beside a SMILES is read from it.

Assays:
in vitro = assay type: cell-based; settings: human, HaCaT keratinocyte cells, Cell Viability
Procedure: To evaluate the cytotoxicity of the peptides prepared in <Example 1>, toxicity was measured using a human keratinocyte cell line (HaCaT cell line, Dr. N. E. Fusenig, Heidelberg, Germany).
Specifically, HaCaT cells cultured in DMEM medium containing 10% fetal bovine serum (FBS) were seeded at a density of 2×10^5 cells/well into a microtiter plate and incubated for 24 hours. Then, peptides dCATH, dCATH-A1, dCATH-A2, dCATH-A3, dCATH-A4, dCATH-A5, dCATH-A6, and dCATH-A7 were added to each well at concentrations of 3.13, 6.25, 12.5, 25.0, 50.0, and 100.0 μM/well, followed by incubation for 24 hours in a 5% CO2 incubator. After 24 hours, 100 μL of a reaction solution containing 0.5 mg/mL MTT (Thiazolyl Blue Tetrazolium Bromide) dissolved in phosphate-buffered saline (PBS) was added to each well and reacted for 4 hours. After removing the supernatant, 200 μL of DMSO (dimethyl sulfoxide) was added to dissolve the formed MTT crystals, and absorbance at 570 nm was measured to determine cell viability.

[1] = test system: Acinetobacter baumannii_isolate 14; assay type: cell-based, Acinetobacter baumannii; settings: isolate 14, 24 h
Procedure: (§1) Specifically, among the bacterial strains listed in Table 2, those known to form biofilms well (Acinetobacter baumannii KCTC 2508, Acinetobacter baumannii isolate 10, and isolate 14) were cultured in the appropriate media to the mid-log phase and diluted to a cell concentration of 5×10^4 cells/100 µL, followed by inoculation into microplates (SPL). Subsequently, the peptides prepared in <Example 1> were serially 10-fold diluted with 10 mM sodium phosphate buffer (pH 7.2), and 10 μL of each dilution was added to each well. The plates were then incubated at 37° C. for 24 hours. After completely removing the supernatant, the plates were fixed with 100% methanol for 15 minutes, stained with crystal violet staining solution for 1 hour, washed three times, and then the stain was solubilized with 95% ethanol. Absorbance was measured at 595 nm using a microplate reader to determine the MBIC values for each bacterial strain.

[2] = test system: Acinetobacter baumannii_isolate 10; assay type: cell-based, Acinetobacter baumannii; settings: isolate 10, 24 h
Procedure: as §1

[3] = test system: Acinetobacter baumannii_isolate 17 (antibiotic-resistant); assay type: cell-based, Acinetobacter baumannii; settings: isolate 17 (antibiotic-resistant)
Excerpt: (§2) To compare the antimicrobial activity of the peptides prepared in <Example 1>, the minimum inhibitory concentration (MIC), […] measured. Here, the minimal inhibitory concentration (MIC) refers to the lowest concentration of a substance that prevents visible bacterial growth.
(§3) Specifically, the bacterial strains listed in Table 2 below were obtained and cultured in media suitable for each strain until the mid-log phase. The cultures were then diluted to a concentration of 2×10^4 cells/100 μL and prepared in microtiter plates (Nunc, USA). Subsequently, serial 2-fold dilutions of the peptides prepared in Example 1 were prepared, and 10 μL of each dilution was added to the wells, and the plates were incubated at 37° C. for 18 hours. Absorbance at 600 nm was measured using a microtiter plate reader (Merck ELISA reader, Germany) to determine the MIC values for each bacterial strain. The parent peptide dCATH was used as a control.

[4] = test system: Acinetobacter baumannii_isolate 4 (antibiotic-resistant); assay type: cell-based, Acinetobacter baumannii; settings: isolate 4 (antibiotic-resistant)
Excerpt: as §2, §3

[5] = test system: Acinetobacter baumannii_isolate 3 (antibiotic-resistant); assay type: cell-based, Acinetobacter baumannii; settings: isolate 3 (antibiotic-resistant)
Excerpt: as §2, §3

[6] = test system: Acinetobacter baumannii_isolate 12 (antibiotic-resistant); assay type: cell-based, Acinetobacter baumannii; settings: isolate 12 (antibiotic-resistant)
Excerpt: as §2, §3

[7] = test system: Acinetobacter baumannii_isolate 23 (antibiotic-resistant); assay type: cell-based, Acinetobacter baumannii; settings: isolate 23 (antibiotic-resistant)
Excerpt: as §2, §3

[8] = test system: Acinetobacter baumannii_isolate 18 (antibiotic-resistant); assay type: cell-based, Acinetobacter baumannii; settings: isolate 18 (antibiotic-resistant)
Excerpt: as §2, §3

[9] = test system: Acinetobacter baumannii_isolate 6 (antibiotic-resistant); assay type: cell-based, Acinetobacter baumannii; settings: isolate 6 (antibiotic-resistant)
Excerpt: as §2, §3

[10] = test system: Acinetobacter baumannii_isolate 22 (antibiotic-resistant); assay type: cell-based, Acinetobacter baumannii; settings: isolate 22 (antibiotic-resistant)
Excerpt: as §2, §3

[11] = test system: Acinetobacter baumannii_isolate20 (antibiotic-resistant); assay type: cell-based, Acinetobacter baumannii; settings: isolate20 (antibiotic-resistant)
Excerpt: as §2, §3

[12] = test system: Acinetobacter baumannii_isolate 19 (antibiotic-resistant); assay type: cell-based, Acinetobacter baumannii; settings: isolate 19 (antibiotic-resistant)
Excerpt: as §2, §3

[13] = test system: Acinetobacter baumannii_isolate 8 (antibiotic-resistant); assay type: cell-based, Acinetobacter baumannii; settings: isolate 8 (antibiotic-resistant)
Excerpt: as §2, §3

[14] = test system: Acinetobacter baumannii_isolate 13 (antibiotic-resistant); assay type: cell-based, Acinetobacter baumannii; settings: isolate 13 (antibiotic-resistant)
Excerpt: as §2, §3

[15] = test system: Acinetobacter baumannii_isolate 5 (antibiotic-resistant); assay type: cell-based, Acinetobacter baumannii; settings: isolate 5 (antibiotic-resistant)
Excerpt: as §2, §3

[16] = test system: Acinetobacter baumannii_isolate11 (antibiotic-resistant); assay type: cell-based, Acinetobacter baumannii; settings: isolate11 (antibiotic-resistant)
Excerpt: as §2, §3

[17] = test system: Acinetobacter baumannii_isolate15 (antibiotic-resistant); assay type: cell-based, Acinetobacter baumannii; settings: isolate15 (antibiotic-resistant)
Excerpt: as §2, §3

[18] = test system: Acinetobacter baumannii_isolate 9 (antibiotic-resistant); assay type: cell-based, Acinetobacter baumannii; settings: isolate 9 (antibiotic-resistant)
Excerpt: as §2, §3

[19] = test system: Acinetobacter baumannii_isolate 2 (antibiotic-resistant); assay type: cell-based, Acinetobacter baumannii; settings: isolate 2 (antibiotic-resistant)
Excerpt: as §2, §3

[20] = test system: Acinetobacter baumannii KCTC 2508; assay type: cell-based; settings: KCTC 2508, 24 h
Procedure: as §1

Compound | viability at 24 h, 3.13 µM (in vitro) | viability at 24 h, 6.25 µM (in vitro) | viability at 24 h, 12.5 µM (in vitro) | viability at 24 h, 25 µM (in vitro) | viability at 24 h, 50 µM (in vitro) | viability at 24 h, 100 µM (in vitro) | MBIC [1] | MBIC [2] | MIC [3] | MIC [4] | MIC [5] | MIC [6] | MIC [7] | MIC [8] | MIC [9] | MIC [10] | MIC [11] | MIC [12] | MIC [13] | MIC [14] | further results
CC[C@H](C)[C@H](NC(=O)[C@H](C)NC(=O)[C@H](CC(C)C)NC(=O)[C@@H]1CCCN1C(=O)[C@@H](NC(=O)[C@H](CC(C)C)NC(=O)[C@H](CCC(N)=O)NC(=O)[C@H](C)NC(=O)[C@H](C)NC(=O)[C@H](CCCNC(=N)N)NC(=O)[C@@H](N)CCCCN)C(C)C)C(=O)N[C@@H](CCCCN)C(=O)N[C@H](C(=O)N[C@@H](Cc1ccc(O)cc1)C(=O)N[C@@H](CCCNC(=N)N)C(=O)N[C@@H](C)C(=O)N[C@@H](Cc1c[nH]c2ccccc12)C(=O)N[C@@H](CCCCN)C(=O)N[C@@H](CCCNC(=N)N)C(=O)N[C@@H](CCCNC(=N)N)C(N)=O)[C@@H](C)CC [dCATH-A3] (H-KRAAQLVPLAIKIYRAWKRR-NH2; N-terminus assumed) | 92% | 91.9% | 97.9% | 56.6% | 5.47% | 1.59% | 1 µM | 2 µM | 1 µM (≈ 2.44 µg/mL) | 1 µM (≈ 2.44 µg/mL) | 1 µM (≈ 2.44 µg/mL) | 1 µM (≈ 2.44 µg/mL) | 1 µM (≈ 2.44 µg/mL) | 1 µM (≈ 2.44 µg/mL) | 2 µM (≈ 4.87 µg/mL) | 1 µM (≈ 2.44 µg/mL) | 1 µM (≈ 2.44 µg/mL) | 1 µM (≈ 2.44 µg/mL) | 1 µM (≈ 2.44 µg/mL) | 1 µM (≈ 2.44 µg/mL) | MIC [15]: 1 µM (≈ 2.44 µg/mL); MIC [16]: 1 µM (≈ 2.44 µg/mL); MIC [17]: 2 µM (≈ 4.87 µg/mL); MIC [18]: 1 µM (≈ 2.44 µg/mL); MIC [19]: 1 µM (≈ 2.44 µg/mL); MBIC [20]: 2 µM
CC[C@H](C)[C@H](NC(=O)[C@H](C)NC(=O)[C@H](CCCCN)NC(=O)[C@H](CCCCN)NC(=O)[C@@H](NC(=O)[C@H](CC(C)C)NC(=O)[C@H](CCC(N)=O)NC(=O)[C@H](C)NC(=O)[C@H](C)NC(=O)[C@H](CCCNC(=N)N)NC(=O)[C@@H](N)CCCCN)C(C)C)C(=O)N[C@@H](CCCCN)C(=O)N[C@H](C(=O)N[C@@H](Cc1ccc(O)cc1)C(=O)N[C@@H](CCCNC(=N)N)C(=O)N[C@@H](C)C(=O)N[C@@H](Cc1c[nH]c2ccccc12)C(=O)N[C@@H](CCCCN)C(=O)N[C@@H](CCCNC(=N)N)C(=O)N[C@@H](CCCNC(=N)N)C(N)=O)[C@@H](C)CC [dCATH-A5] (H-KRAAQLVKKAIKIYRAWKRR-NH2; N-terminus assumed) | 100% | 92.3% | 95.1% | 58% | 8.27% | 3.71% | 1 µM | 2 µM | 1 µM (≈ 2.48 µg/mL) | 1 µM (≈ 2.48 µg/mL) | 1 µM (≈ 2.48 µg/mL) | 1 µM (≈ 2.48 µg/mL) | 1 µM (≈ 2.48 µg/mL) | 1 µM (≈ 2.48 µg/mL) | 1 µM (≈ 2.48 µg/mL) | 2 µM (≈ 4.97 µg/mL) | 1 µM (≈ 2.48 µg/mL) | 1 µM (≈ 2.48 µg/mL) | 1 µM (≈ 2.48 µg/mL) | 1 µM (≈ 2.48 µg/mL) | MIC [15]: 1 µM (≈ 2.48 µg/mL); MIC [16]: 1 µM (≈ 2.48 µg/mL); MIC [17]: 1 µM (≈ 2.48 µg/mL); MIC [18]: 1 µM (≈ 2.48 µg/mL); MIC [19]: 1 µM (≈ 2.48 µg/mL); MBIC [20]: 2 µM
CC[C@H](C)[C@H](NC(=O)[C@H](C)NC(=O)[C@H](CC(C)C)NC(=O)[C@@H]1CCCN1C(=O)[C@@H](NC(=O)[C@H](CC(C)C)NC(=O)[C@H](CCC(N)=O)NC(=O)[C@H](Cc1c[nH]c2ccccc12)NC(=O)[C@H](C)NC(=O)[C@H](CCCNC(=N)N)NC(=O)[C@@H](N)CCCCN)C(C)C)C(=O)N[C@@H](CCCCN)C(=O)N[C@H](C(=O)N[C@@H](Cc1ccc(O)cc1)C(=O)N[C@@H](CCCNC(=N)N)C(=O)N[C@@H](C)C(=O)N[C@@H](Cc1c[nH]c2ccccc12)C(=O)N[C@@H](CCCCN)C(=O)N[C@@H](CCCNC(=N)N)C(=O)N[C@@H](CCCNC(=N)N)C(N)=O)[C@@H](C)CC [dCATH-A1] (H-KRAWQLVPLAIKIYRAWKRR-NH2; N-terminus assumed) | 100% | 100% | 97.9% | 30% | 0.81% | 1.79% | 2 µM | 4 µM | 1 µM (≈ 2.55 µg/mL) | 2 µM (≈ 5.1 µg/mL) | 2 µM (≈ 5.1 µg/mL) | 2 µM (≈ 5.1 µg/mL) | 1 µM (≈ 2.55 µg/mL) | 2 µM (≈ 5.1 µg/mL) | 2 µM (≈ 5.1 µg/mL) | 2 µM (≈ 5.1 µg/mL) | 1 µM (≈ 2.55 µg/mL) | 1 µM (≈ 2.55 µg/mL) | 2 µM (≈ 5.1 µg/mL) | 2 µM (≈ 5.1 µg/mL) | MIC [15]: 2 µM (≈ 5.1 µg/mL); MIC [16]: 2 µM (≈ 5.1 µg/mL); MIC [17]: 2 µM (≈ 5.1 µg/mL); MIC [18]: 2 µM (≈ 5.1 µg/mL); MIC [19]: 2 µM (≈ 5.1 µg/mL); MBIC [20]: 4 µM
